In patent US8012993B2, “Stable S-nitrosothiols, method of synthesis and use” (Lacer, S.A., priority 2006, dated 2011):

What was measured:
[1] = test system: thrombus in arterio-venous shunt; test: Rat arterio-venous shunt silk thread model; assay type: in vivo, male Wistar rats; conditions: rat AV shunt, perfusion 60 minutes
Description: The activity of the products was assessed in experimental animals in accordance with the European Community Standards on the Care and Use of Laboratory Animals and approved by the Animal Care and Use Committee of local authorities. Two experimental models to test antithrombotic activity in rats were used: Arterio-Venous Shunt and Ferric chloride arterial thrombosis model. Additionally, the effect of the products on the systemic blood pressure was investigated. Fasted male Wistar rats (300-320 g; Janvier, Le Genest St. Isle, France) were anesthetized with sodium pentobarbitone (60 mg/kg i.p.). An arterio-venous (AV) shunt was prepared according to the technique of Umetsu and Sanai (1978). Two 12 cm-long polyethylene tubes (0.85- and 1.27-mm i.d. and o.d., respectively) linked to a central part (6 cm-long; 1.14-mm i.d.) containing a 5-cm cotton thread and filled with […]) saline solution were placed between the right carotid artery and the left jugular vein. All products were given i.v through the jugular vein for 60 minutes. Shunt was placed 45 minutes after the initiation of the perfusion with the testing substances and removed at the end of the perfusion i.e. after 15 min of blood circulation. Cotton thread supporting the thrombus was extracted.

systemic blood pressure = test: Effect of nitrosothiols on systemic blood pressure; assay type: in vivo, male Wistar rats; conditions: for Mean arterial pressure, Basal: before initiation of the treatment
Description: Fasted male Wistar rats (300-320 g; Janvier, Le Genest St. Isle, France) were anesthetized with sodium pentobarbitone (60 mg/kg i.p.). The effect of treatments on systemic blood pressure was tested. Products dissolved in saline solution and were infused intravenously for 30 minutes at 0.5 ml/h. […] Basal blood pressure was measured before initiation of the treatment and was recorded throughout the treatment period using a pressure transducer connected to the carotid artery. The change in blood pressure was expressed as a % of change vs. basal values.

arterial thrombosis = test: Rat arterial thrombosis model (ferric chloride, carotid artery); assay type: in vivo, male Wistar rats; conditions: i.v. infusion for 30 minutes
Description: The activity of the products was assessed in experimental animals in accordance with the European Community Standards on the Care and Use of Laboratory Animals and approved by the Animal Care and Use Committee of local authorities. Two experimental models to test antithrombotic activity in rats were used: Arterio-Venous Shunt and Ferric chloride arterial thrombosis model. Additionally, the effect of the products on the systemic blood pressure was investigated. Fasted male Wistar rats (300-320 g; Janvier, Le Genest St. Isle, France) were anesthetized with sodium pentobarbital (60 mg/kg i.p.) and thermoregulated by use of blankets (Biosis homeothermic blanket control unit; Biosis, Spain). A segment (approximately 1-cm long) of the left carotid artery was exposed and fitted at the distal end with an appropriately sized Doppler flow probe. Thrombosis was induced by applying a 70% ferric chloride solution embedded patch onto the artery. Blood flow velocity was measured using a Doppler flowmeter (Transonic Systems, San Diego, Calif.) and data recorded using a system for acquisition of data (Acqk). Blood flow was recorded for 60 min post-lesion. When the flow declined to zero, the time in minutes to thrombus formation was noted. The protocol followed was originally described by Feuerstein G Z, et al Artherioscler. Thromb. Vasc. Biol. 1999, 19: 2554-2562 and modified by Kurz K D, et al Thromb. Res. 1990, 60:269-280. The number of animals presenting no occlusion 30 min post-lesion were also noted. Products were dissolved in saline and were given as an i.v. infusion for 30 minutes. ED50 for each product was calculated and results are shown in Table 1 • Anti-thrombotic effect of compounds compared with reference compound in rat arterial thrombosis model after i.v. administration for 30 minutes.

[2] = Stability study: storage in closed borosilicate glass vial, HPLC analysis; assay type: physicochemical
intraocular pressure = test: Alfa-chymotrypsin-induced glaucoma, intraocular pressure; assay type: in vivo; conditions: glaucoma rabbits; for intraocular pressure, 0 hr / intraocular pressure, 1 hr / intraocular pressure, 2 hr: 3 drops instillation
Description: The method used was that described by Gabriele Campana, Claudio Bucolo, Giovanna Murari and Santi Spampinato in Pharmacol. Exp Therap Vol. 303, Issue 3, 1086-1094, December 2002
Animals were injected with intra muscular injection of dexamethasone at the dose rate of 10 mg/Kg body weight, to avoid immediate inflammation. Animals were anesthetized with ketamine (50 mg/kg IV) in combination with Dizepam.
Xylocalne (4%) was used for local anesthesia topically. A cannula attached to reservoir was inserted into the anterior chamber with the help of a 30 gauge needle to provide a hydrostatic pressure of 25 mmHg during injection of alpha-chymotrypsin. Then a second appropriately shaped 30 gauge needle was introduced near the pupil. Freshly prepared 150 units of alpha chymotrypsin prepared in 0.1 ml of sterile saline was irrigated through the cannula into the posterior chamber. Care was taken to prevent the contact of alpha chymotrypsin with corneal stroma. Both cannulas were carefully removed without significant loss of aqueous humor. Immediately after surgery the eye treated with Sofracort (Corticosteroid) to reduce the chances of fungal or microbial infection.
All the animals were kept under observation for 5 days and after these five days the intraocular pressure (IOP) was measured daily with a Schiontz type indentation tonometer using 5.5 gm weights and by compilation of readings the maximum period required to achieve a stable increase in IOP was determined. […] IOP was measured after 15 days for 3 consecutive days, every morning (at same time) to assure stable IOP.
All the animals were closely observed for the development of glaucoma. Thirty animals showing the symptoms of glaucoma and with the intra ocular pressure more than 30 mmHg were selected for the present investigation.
Compound (R,S)-4-(Acetylamino-ethoxycarbonyl-methyl)-1-methyl-4-S-nitroso-mercapto-piperidinium chloride (example 1g) was administered to a group of rabbits at a concentration of 0.05% by weight [0.05 g in 100 mL of saline serum] by 3 drops instillation. For comparative data, the compound Timolol (Timoftol®) widely used for the treatment of glaucoma, was also administered to another group of rabbits at a concentration of 0.5% by weight.
The intraocular pressure measurements are included in the table 2 in mm Hg taken at 0, 1 and 2 h after 3 drops instillation.

[3] = anesthetized rat, i.v. infusion 30 min, dose 100 times the antithrombotic ED50
[4] = at 4° C., closed glass vial, no longer stable when it loses more than 5% of initial purity (HPLC)
[5] = at 25° C., closed glass vial, no longer stable when it loses more than 5% of initial purity (HPLC)
[6] = change vs. basal after 30 min i.v. infusion, dose 100 times the antithrombotic ED50

Compound	Mean arterial pressure, After 30 min infusion (systemic blood pressure; [3]) [mm Hg]	ED50 (anti-thrombotic effect) (arterial thrombosis)	time the compound was stable [2, 4]	time the compound was stable [2, 5]	Mean arterial pressure, Basal (systemic blood pressure; anesthetized rat) [mm Hg]	Mean arterial pressure, Change (systemic blood pressure; [6]) [%]	other results
CC(=O)NC(C(=O)O)C1(SN=O)CCN(C)CC1 (stereo not drawn) [example 2 of EP 1157987, N-acetyl-2-amino-2[4-(4-S-nitrosomercapto-1-methylpiperidin)]acetic acid, reference compound]	95.1 ± 2.4	4.1 μg/kg, i.v.					Antithrombotic protection ([1]; dose 1.7 μg/kg i.v.): 61%
CCOC(=O)C(NC(C)=O)C1(SN=O)CCN(C)CC1.Cl (racemic) [Example 1g, (R,S)-4-(Acetylamino-ethoxycarbonyl-methyl)-1-methyl-4-S-nitrosomercapto-piperidinium chloride]	113.6 ± 9.2	9.1 μg/kg, i.v.	more than 10 months	2.5 months	115.7 ± 8.3	−1.8	Antithrombotic protection ([1]; dose 2.0 μg/kg i.v.): 54%; intraocular pressure, 0 hr (intraocular pressure; 0.05% by weight in saline): 34.33 ± 0.68 mm Hg; intraocular pressure, 1 hr (intraocular pressure; 0.05% by weight in saline): 24.72 ± 0.47 mm Hg; intraocular pressure, 2 hr (intraocular pressure; 0.05% by weight in saline): 23.86 ± 0.32 mm Hg; effect on intraocular pressure (in words) (intraocular pressure; 0.05%, 10-fold lower concentration than Timolol): significantly reduces the intraocular pressure
N[C@@H](CCC(=O)N[C@@H](CSN=O)C(=O)NCC(=O)O)C(=O)O [GSNO, S-nitrosoglutathione, reference compound]	98.8 ± 4.1	18.1 μg/kg, i.v.			112.2 ± 6.2	−12.0	Antithrombotic protection ([1]; dose 4.0 μg/kg i.v.): 58%; time the compound was stable ([2]; at 25° C., prior art S-nitrothiol compounds, loss of more than 5% of initial purity): 1 days
CCOC(=O)[C@@H](NS(=O)(=O)c1ccccc1)C1(SN=O)CCN(C)CC1.Cl (racemic) [Example 7 (hydrochloride salt), (R,S)-4-(Benzenesulfonylamino-ethoxycarbonyl-methyl)-1-methyl-4-S-nitrosomercapto-piperidinium chloride]		56.4 μg/kg, i.v.	> 6 months	at least 4 months	117.9 ± 10.2		Antithrombotic protection ([1]; dose 10.4 μg/kg i.v.): 60%; Mean arterial pressure, Change (systemic blood pressure; rat, in vivo): +0.8%; Mean arterial pressure, After 30 min infusion (systemic blood pressure; rat, in vivo, iv): 118.8 ± 11.1 mm Hg
CC(C)(C)NC[C@H](O)COc1nsnc1N1CCOCC1 [Timolol, reference compound]							intraocular pressure, 0 hr (intraocular pressure; 0.5% by weight): 34.45 ± 0.58 mm Hg; intraocular pressure, 1 hr (intraocular pressure; 0.5% by weight): 24.77 ± 0.26 mm Hg; intraocular pressure, 2 hr (intraocular pressure; 0.5% by weight): 24.54 ± 0.26 mm Hg
